We go through 33 molecules from patent US20140058103A1, “Inhibitors of PI3K-Delta and Methods of Their Use and Manufacture” (Exelixis, Inc., priority 2010, published 2014).

Molecules are shown by their SMILES. Some results are limits rather than exact numbers.

The target of the assay is PI3K delta (Homo sapiens, UniProt O00329). In words: Luciferase-coupled chemiluminescence kinase assay (ATP consumption, KinaseGlo). It is filed as biochemical. The essentials:
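Compound, kinase and ATP (≤ KM) reacted 2 h at ambient temperature, then remaining ATP quantified with luciferase-luciferin (KinaseGlo) luminescence as percent consumed.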
A general note: Kinase-Glo measures the ATP left after a reaction by luminescence.

Sequence of PI3K delta (O00329 whole entry): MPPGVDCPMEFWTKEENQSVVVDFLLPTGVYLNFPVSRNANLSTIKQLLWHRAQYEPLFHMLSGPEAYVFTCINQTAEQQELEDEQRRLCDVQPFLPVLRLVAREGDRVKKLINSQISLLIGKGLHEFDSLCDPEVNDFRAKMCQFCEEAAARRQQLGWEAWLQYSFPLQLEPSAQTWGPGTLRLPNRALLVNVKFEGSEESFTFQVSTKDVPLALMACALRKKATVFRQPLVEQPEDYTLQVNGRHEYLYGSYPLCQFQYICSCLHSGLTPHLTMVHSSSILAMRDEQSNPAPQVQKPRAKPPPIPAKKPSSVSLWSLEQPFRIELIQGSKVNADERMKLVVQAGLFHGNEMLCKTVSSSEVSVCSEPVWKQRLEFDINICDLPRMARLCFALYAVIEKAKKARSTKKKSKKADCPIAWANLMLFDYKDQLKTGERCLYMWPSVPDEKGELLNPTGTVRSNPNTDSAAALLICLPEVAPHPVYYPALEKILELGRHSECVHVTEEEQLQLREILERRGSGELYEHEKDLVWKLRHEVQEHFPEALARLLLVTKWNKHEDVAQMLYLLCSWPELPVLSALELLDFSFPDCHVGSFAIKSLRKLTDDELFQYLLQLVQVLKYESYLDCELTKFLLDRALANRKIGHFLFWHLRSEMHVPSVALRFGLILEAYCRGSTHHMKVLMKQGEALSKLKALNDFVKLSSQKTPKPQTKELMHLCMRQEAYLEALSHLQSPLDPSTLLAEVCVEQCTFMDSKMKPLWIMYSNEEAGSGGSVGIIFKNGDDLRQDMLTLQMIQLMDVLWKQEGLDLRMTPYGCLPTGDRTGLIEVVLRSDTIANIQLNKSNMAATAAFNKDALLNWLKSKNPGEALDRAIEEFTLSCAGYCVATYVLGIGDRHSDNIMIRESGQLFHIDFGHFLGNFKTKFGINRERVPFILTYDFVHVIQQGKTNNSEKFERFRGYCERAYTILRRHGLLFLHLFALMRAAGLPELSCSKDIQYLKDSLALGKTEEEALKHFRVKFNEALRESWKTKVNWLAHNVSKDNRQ
Sequence of PI3K delta (P27986 whole entry partner): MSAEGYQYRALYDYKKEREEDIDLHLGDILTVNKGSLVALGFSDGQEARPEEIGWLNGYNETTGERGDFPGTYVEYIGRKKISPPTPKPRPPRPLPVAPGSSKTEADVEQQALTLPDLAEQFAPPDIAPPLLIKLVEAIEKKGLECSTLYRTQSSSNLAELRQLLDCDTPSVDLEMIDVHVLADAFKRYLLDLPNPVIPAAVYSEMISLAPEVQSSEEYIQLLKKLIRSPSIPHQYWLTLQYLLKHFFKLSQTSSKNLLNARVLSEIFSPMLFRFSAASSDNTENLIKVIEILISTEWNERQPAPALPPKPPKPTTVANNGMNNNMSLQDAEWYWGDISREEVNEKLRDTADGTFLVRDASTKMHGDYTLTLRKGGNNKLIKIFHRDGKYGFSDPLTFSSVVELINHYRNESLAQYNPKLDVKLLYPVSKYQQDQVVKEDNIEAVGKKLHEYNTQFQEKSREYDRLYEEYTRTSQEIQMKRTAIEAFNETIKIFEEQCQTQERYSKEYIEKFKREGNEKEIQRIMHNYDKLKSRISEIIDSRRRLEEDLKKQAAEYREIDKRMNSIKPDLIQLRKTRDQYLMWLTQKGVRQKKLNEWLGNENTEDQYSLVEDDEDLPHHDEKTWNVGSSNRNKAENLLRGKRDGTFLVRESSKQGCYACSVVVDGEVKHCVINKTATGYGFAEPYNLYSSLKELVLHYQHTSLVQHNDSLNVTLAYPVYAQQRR

`CCn1c(C(=O)N2CC(F)(F)C2)nc2c(N3CCC4(CC3)C(=O)Nc3ccccc34)ncnc21` [Compound 216, 1′-{8-[(3,3-difluoroazetidin-1-yl)carbonyl]-9-ethyl-9H-purin-6-yl}spiro[indole-3,4′-piperidin]-2(1H)-one] gave an IC50 of less than 50 nM.

Take `CCn1c(C(=O)NCC(C)(C)C)nc2c(N3CCC4(CC3)C(=O)Nc3ccccc34)ncnc21` [Compound 217, N-(2,2-dimethylpropyl)-9-ethyl-6-(2-oxo-1,2-dihydro-1′H-spiro[indole-3,4′-piperidin]-1′-yl)-9H-purine-8-carboxamide]: the IC50 is less than 50 nM.

Molecule `CCn1c(C(=O)N2CCC(F)(F)C2)nc2c(N3CCC4(CC3)C(=O)Nc3ccccc34)ncnc21` [Compound 218, 1′-{8-[(3,3-difluoropyrrolidin-1-yl)carbonyl]-9-ethyl-9H-purin-6-yl}spiro[indole-3,4′-piperidin]-2(1H)-one] yielded an IC50 of less than 50 nM.

`CCNC(=O)c1nc2c(N3CCC4(CC3)C(=O)Nc3ccccc34)ncnc2n1CC` [Compound 219, N,9-diethyl-6-(2-oxo-1,2-dihydro-1′H-spiro[indole-3,4′-piperidin]-1′-yl)-9H-purine-8-carboxamide] registered an IC50 of less than 50 nM.

As for `CCCNC(=O)c1nc2c(N3CCC4(CC3)C(=O)Nc3ccccc34)ncnc2n1CC` [Compound 220, 9-ethyl-6-(2-oxo-1,2-dihydro-1′H-spiro[indole-3,4′-piperidin]-1′-yl)-N-propyl-9H-purine-8-carboxamide], the IC50 is less than 50 nM.

As to `CCn1c(C(=O)NC2CCC2)nc2c(N3CCC4(CC3)C(=O)Nc3ccccc34)ncnc21` [Compound 221, N-cyclobutyl-9-ethyl-6-(2-oxo-1,2-dihydro-1′H-spiro[indole-3,4′-piperidin]-1′-yl)-9H-purine-8-carboxamide], the IC50 is less than 50 nM.

In turn, `CCn1c(C(=O)NCCCCO)nc2c(N3CCC4(CC3)C(=O)Nc3ccccc34)ncnc21` [Compound 222, 9-ethyl-N-(4-hydroxybutyl)-6-(2-oxo-1,2-dihydro-1′H-spiro[indole-3,4′-piperidin]-1′-yl)-9H-purine-8-carboxamide] returned an IC50 of 50 to 250 nM.

For the molecule `CCn1c(C(=O)NC(C)C)nc2c(N3CCC4(CC3)C(=O)Nc3ccccc34)ncnc21` [Compound 223, 9-ethyl-N-(1-methylethyl)-6-(2-oxo-1,2-dihydro-1′H-spiro[indole-3,4′-piperidin]-1′-yl)-9H-purine-8-carboxamide], the IC50 was less than 50 nM.

For the molecule `CCn1c(C(=O)NCC(C)(C)O)nc2c(N3CCC4(CC3)C(=O)Nc3ccccc34)ncnc21` [Compound 224, 9-ethyl-N-(2-hydroxy-2-methylpropyl)-6-(2-oxo-1,2-dihydro-1′H-spiro[indole-3,4′-piperidin]-1′-yl)-9H-purine-8-carboxamide], the IC50 is less than 50 nM.

In turn, `CCn1c(C(=O)NCCC(C)C)nc2c(N3CCC4(CC3)C(=O)Nc3ccccc34)ncnc21` [Compound 225, 9-ethyl-N-(3-methylbutyl)-6-(2-oxo-1,2-dihydro-1′H-spiro[indole-3,4′-piperidin]-1′-yl)-9H-purine-8-carboxamide] returned an IC50 of 50 to 250 nM.

Take `CCn1c(C(=O)NC2COC2)nc2c(N3CCC4(CC3)C(=O)Nc3ccccc34)ncnc21` [Compound 226, 9-ethyl-N-oxetan-3-yl-6-(2-oxo-1,2-dihydro-1′H-spiro[indole-3,4′-piperidin]-1′-yl)-9H-purine-8-carboxamide]: the IC50 is less than 50 nM.

With `CCCc1nnc(-c2nc3c(N4CCC5(CC4)C(=O)Nc4ccccc45)ncnc3n2CC)o1` [Compound 227, 1′-[9-ethyl-8-(5-propyl-1,3,4-oxadiazol-2-yl)-9H-purin-6-yl]spiro[indole-3,4′-piperidin]-2(1H)-one], the IC50 is less than 50 nM.

Turning to `Cn1c(C(=O)NCC2CC2)nc2c(N3CCC(n4c(=O)[nH]c5cc(Cl)ccc54)CC3)ncnc21` [Compound 228, 6-[4-(5-chloro-2-oxo-2,3-dihydro-1H-benzimidazol-1-yl)piperidin-1-yl]-N-(cyclopropylmethyl)-9-methyl-9H-purine-8-carboxamide], the concentration for half-maximal inhibition (IC50) lay in the range of 500 to 1500 nM.

Molecule `Cn1c(C(=O)NCC2CC2)nc2c(N3CCC(n4c(=O)[nH]c5ccc(Cl)cc54)CC3)ncnc21` [Compound 229, 6-[4-(6-chloro-2-oxo-2,3-dihydro-1H-benzimidazol-1-yl)piperidin-1-yl]-N-(cyclopropylmethyl)-9-methyl-9H-purine-8-carboxamide] displayed an IC50 of 500 to 1500 nM.

`Cn1c(C(=O)NCC2CC2)nc2c(N3CCC(n4c(=O)[nH]c5c(Cl)cccc54)CC3)ncnc21` [Compound 230, 6-[4-(4-chloro-2-oxo-2,3-dihydro-1H-benzimidazol-1-yl)piperidin-1-yl]-N-(cyclopropylmethyl)-9-methyl-9H-purine-8-carboxamide] showed an IC50 of 50 to 250 nM.

In turn, `Cn1c(-c2cnn(CC3CCC3)c2)nc2c(N3CCC(n4c(=O)[nH]c5ccccc54)CC3)ncnc21` [Compound 231] came in with a concentration for half-maximal inhibition (IC50) of less than 50 nM.

`CCCCc1nnc(-c2nc3c(N4CCC(n5c(=O)[nH]c6ccccc65)CC4)ncnc3n2C)o1` [Compound 232, 1-(1-[8-(5-butyl-1,3,4-oxadiazol-2-yl)-9-methyl-9H-purin-6-yl]piperidin-4-yl)-1,3-dihydro-2H-benzimidazol-2-one] came in with an IC50 of less than 50 nM.

`CC(C)CCn1cc(-c2nc3c(N4CCC(n5c(=O)[nH]c6ccccc65)CC4)ncnc3n2C)cn1` [Compound 233, 1-(1-{9-methyl-8-[1-(3-methylbutyl)-1H-pyrazol-4-yl]-9H-purin-6-yl}piperidin-4-yl)-1,3-dihydro-2H-benzimidazol-2-one] had an IC50 of 50 to 250 nM.

`CCCn1cc(-c2nc3c(N4CCC5(CC4)C(=O)Nc4ccccc45)ncnc3n2C)cn1` [Compound 234, 1′-[9-methyl-8-(1-propyl-1H-pyrazol-4-yl)-9H-purin-6-yl]spiro[indole-3,4′-piperidin]-2(1H)-one]: the IC50 is less than 50 nM.

Molecule `Cn1c(C(=O)NCC2CC2)nc2c(N3CC[C@H](c4ccccc4)[C@@H](O)C3)ncnc21` [Compound 235, N-(cyclopropylmethyl)-6-[(3R,4R)-3-hydroxy-4-phenylpiperidin-1-yl]-9-methyl-9H-purine-8-carboxamide] returned an IC50 of 500 to 1500 nM.

`CCc1nnc(-c2nc3c(N4CCC5(CC4)C(=O)Nc4ccccc45)ncnc3n2CC)o1` [Compound 236, 1′-[9-ethyl-8-(5-ethyl-1,3,4-oxadiazol-2-yl)-9H-purin-6-yl]spiro[indole-3,4′-piperidin]-2(1H)-one] came in with an IC50 of less than 50 nM.

`CCn1cc(-c2nc3c(N4CCC5(CC4)C(=O)Nc4ccccc45)ncnc3n2C)cn1` [Compound 237, 1′-[8-(1-Ethyl-1H-pyrazol-4-yl)-9-methyl-9H-purin-6-yl]spiro[indole-3,4′-piperidin]-2(1H)-one] displayed an IC50 of less than 50 nM.

In turn, `Cn1c(-c2cn[nH]c2)nc2c(N3CCC4(CC3)C(=O)Nc3ccccc34)ncnc21` [Compound 238, 1′-[9-methyl-8-(1H-pyrazol-4-yl)-9H-purin-6-yl]spiro[indole-3,4′-piperidin]-2(1H)-one] showed an IC50 of less than 50 nM.

On to `Cn1cc(-c2nc3c(N4CCC5(CC4)C(=O)Nc4ccccc45)ncnc3n2C)cn1` [Compound 239, 1′-[9-methyl-8-(1-methyl-1H-pyrazol-4-yl)-9H-purin-6-yl]spiro[indole-3,4′-piperidin]-2(1H)-one], for which the IC50 is less than 50 nM.

Molecule `Cn1c(C(=O)NCC2CC2)nc2c(N3CCC(n4c(=O)[nH]c5ncccc54)CC3)ncnc21` [Compound 240, N-(cyclopropylmethyl)-9-methyl-6-[4-(2-oxo-2,3-dihydro-1H-imidazo[4,5-b]pyridin-1-yl)piperidin-1-yl]-9H-purine-8-carboxamide] came in with an IC50 of 50 to 250 nM.

For `Cc1c(-c2nc3c(N4CCC(n5c(=O)[nH]c6ccccc65)CC4)ncnc3n2C)cnn1C` [Compound 241, 1-{1-[8-(1,5-dimethyl-1H-pyrazol-4-yl)-9-methyl-9H-purin-6-yl]piperidin-4-yl}-1,3-dihydro-2H-benzimidazol-2-one], the IC50 was less than 50 nM.

The molecule `Cc1[nH]ncc1-c1nc2c(N3CCC(n4c(=O)[nH]c5ccccc54)CC3)ncnc2n1C` [Compound 242, 1-{1-[9-methyl-8-(5-methyl-1H-pyrazol-4-yl)-9H-purin-6-yl]piperidin-4-yl}-1,3-dihydro-2H-benzimidazol-2-one] yielded an IC50 of less than 50 nM.

As for `CCn1c(-c2cnn(C)c2)nc2c(N3CCC(n4c(=O)[nH]c5ccccc54)CC3)ncnc21` [Compound 243, 1-{1-[9-ethyl-8-(1-methyl-1H-pyrazol-4-yl)-9H-purin-6-yl]piperidin-4-yl}-1,3-dihydro-2H-benzimidazol-2-one], the IC50 is less than 50 nM.

`CCn1cc(-c2nc3c(N4CCC(n5c(=O)[nH]c6ccccc65)CC4)ncnc3n2CC)cn1` [Compound 244, 1-{1-[9-ethyl-8-(1-ethyl-1H-pyrazol-4-yl)-9H-purin-6-yl]piperidin-4-yl}-1,3-dihydro-2H-benzimidazol-2-one] displayed an IC50 of less than 50 nM.

Turning to `CCn1c(-c2cnn(C)c2)nc2c(N3CCC4(CC3)C(=O)Nc3ccccc34)ncnc21` [Compound 245, 1′-[9-ethyl-8-(1-methyl-1H-pyrazol-4-yl)-9H-purin-6-yl]spiro[indole-3,4′-piperidin]-2(1H)-one], the IC50 was less than 50 nM.

On to `Cc1c(-c2nc3c(N4CCC5(CC4)C(=O)Nc4ccccc45)ncnc3n2C)cnn1C` [Compound 246, 1′-[8-(1,5-dimethyl-1H-pyrazol-4-yl)-9-methyl-9H-purin-6-yl]spiro[indole-3,4′-piperidin]-2(1H)-one], for which the IC50 was less than 50 nM.

For the molecule `Cc1[nH]ncc1-c1nc2c(N3CCC4(CC3)C(=O)Nc3ccccc34)ncnc2n1C` [Compound 247, 1′-[9-methyl-8-(5-methyl-1H-pyrazol-4-yl)-9H-purin-6-yl]spiro[indole-3,4′-piperidin]-2(1H)-one], the IC50 was less than 50 nM.

Turning to `Cn1c(C(=O)NCC2CC2)nc2c(N3CCC(N4C(=O)NCc5ccccc54)CC3)ncnc21` [Compound 248, N-(cyclopropylmethyl)-9-methyl-6-[4-(2-oxo-3,4-dihydroquinazolin-1(2H)-yl)piperidin-1-yl]-9H-purine-8-carboxamide], the IC50 is 250 to 500 nM.

One may read the IC50 as the midpoint of a concentration-inhibition curve. A low value points to greater potency in that assay.
